# Experimental data reported in patent US12410171B2, “Tropomyosin receptor kinase (TRK) degradation compounds and methods of use” (Cullgen (Shanghai), Inc., priority 2020, dated 2025).
# Molecular target: T1, TPM3-TRKA fusion protein (Homo sapiens, UniProt P04629)
# T1 construct: The resulted chimeric proteins always retain the kinase domain of TRK proteins; TPM3 (fusion partner, N-terminal part of tropomyosin alpha-3, P06753); endogenous in cells; host or cells: KM12 colon cancer cells; the other entry of the earlier key: TPM3 (P06753, Tropomyosin alpha-3 chain)
# T1 sequence (P04629 with tags, fused parts or gaps): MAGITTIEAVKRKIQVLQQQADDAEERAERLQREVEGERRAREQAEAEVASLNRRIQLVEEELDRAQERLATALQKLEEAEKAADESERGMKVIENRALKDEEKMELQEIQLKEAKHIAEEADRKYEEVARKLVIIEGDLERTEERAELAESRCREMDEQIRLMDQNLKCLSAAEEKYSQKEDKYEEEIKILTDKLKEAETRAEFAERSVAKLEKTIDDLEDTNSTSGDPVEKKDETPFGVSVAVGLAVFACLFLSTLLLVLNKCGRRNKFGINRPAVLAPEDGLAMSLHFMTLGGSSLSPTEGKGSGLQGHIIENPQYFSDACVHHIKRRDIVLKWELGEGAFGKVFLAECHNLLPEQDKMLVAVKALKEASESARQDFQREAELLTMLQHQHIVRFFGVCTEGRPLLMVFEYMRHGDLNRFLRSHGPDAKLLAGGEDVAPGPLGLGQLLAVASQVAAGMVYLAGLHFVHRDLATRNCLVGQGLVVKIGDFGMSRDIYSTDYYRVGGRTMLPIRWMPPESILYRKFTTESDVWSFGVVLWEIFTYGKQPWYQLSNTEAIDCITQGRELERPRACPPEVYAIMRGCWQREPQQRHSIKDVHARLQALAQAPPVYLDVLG
# Test: TPM3-TRKA fusion protein levels in KM12 cells (Western blot)
# Type: cell-based
# Settings: 16 h; TPM3-TRKA degradation in KM12 cells at 10 nM compound, category of percentage degradation; read-out: Degradation (at 10 nM)
# Outline: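 KM12 colon cancer cells were treated with DMSO or compounds at 0.1–100 nM, 0.4–30 nM or other stated concentrations for 4, 8–16 or 16 h. RIPA lysates were BCA-normalized and resolved by SDS-PAGE. TPM3-TRKA was detected by chemiluminescent Western blot, with bands quantified by densitometry.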
row,SMILES,percent degradation of TPM3-TRKA protein at 0.01 µM [%]
1,"O=C(CN1CCN(c2ccc(C(=O)Nc3n[nH]c4ccc(Cc5cc(F)cc(F)c5)cc34)c(NC3CCOCC3)c2)CC1)NCCOCCNc1cccc2c1C(=O)N(C1CCC(=O)NC1=O)C2=O (stereo not drawn) [TR-151, N-(5-(3,5-Difluorobenzyl)-1H-indazol-3-yl)-4-(4-(2-((2-(2-((2-(2,6-dioxopiperidin-3-yl)-1,3-dioxoisoindolin-4-yl)amino)ethoxy)ethyl)amino)-2-oxoethyl)piperazin-1-yl)-2-((tetrahydro-2H-pyran-4-yl)amino)benzamide]",> 80
2,"O=C(CN1CCN(c2ccc(C(=O)Nc3n[nH]c4ccc(Cc5cc(F)cc(F)c5)cc34)c(NC3CCOCC3)c2)CC1)NCCOCCOCCNc1cccc2c1C(=O)N(C1CCC(=O)NC1=O)C2=O (stereo not drawn) [TR-153, N-(5-(3,5-Difluorobenzyl)-1H-indazol-3-yl)-4-(4-(2-((2-(2-(2-((2-(2,6-dioxopiperidin-3-yl)-1,3-dioxoisoindolin-4-yl)amino)ethoxy)ethoxy)ethyl)amino)-2-oxoethyl)piperazin-1-yl)-2-((tetrahydro-2H-pyran-4-yl)amino)benzamide]",> 80
3,"O=C(CN1CCN(c2ccc(C(=O)Nc3n[nH]c4ccc(Cc5cc(F)cc(F)c5)cc34)c(NC3CCOCC3)c2)CC1)NCCCCNc1cccc2c1C(=O)N(C1CCC(=O)NC1=O)C2=O (stereo not drawn) [TR-155, N-(5-(3,5-Difluorobenzyl)-1H-indazol-3-yl)-4-(4-(2-((4-((2-(2,6-dioxopiperidin-3-yl)-1,3-dioxoisoindolin-4-yl)amino)butyl)amino)-2-oxoethyl)piperazin-1-yl)-2-((tetrahydro-2/-pyran-4-yl)amino)benzamide]",> 80
4,"O=C(CN1CCN(c2ccc(C(=O)Nc3n[nH]c4ccc(Cc5cc(F)cc(F)c5)cc34)c(NC3CCOCC3)c2)CC1)NCCCCNc1ccc2c(c1)C(=O)N(C1CCC(=O)NC1=O)C2=O (stereo not drawn) [TR-156, N-(5-(3,5-Difluorobenzyl)-1H-indazol-3-yl)-4-(4-(2-((4-((2-(2,6-dioxopiperidin-3-yl)-1,3-dioxoisoindolin-S-yl)amino)butyl)amino)-2-oxoethyl)piperazin-1-yl)-2-((tetrahydro-2H-pyran-4-yl)amino)benzamide]",> 80
5,"O=C(CN1CCN(c2ccc(C(=O)Nc3n[nH]c4ccc(Cc5cc(F)cc(F)c5)cc34)c(NC3CCOCC3)c2)CC1)NCCOCCNc1ccc2c(c1)C(=O)N(C1CCC(=O)NC1=O)C2=O (stereo not drawn) [TR-161, N-(5-(3,5-Difluorobenzyl)-1H-indazol-3-yl)-4-(4-(2-((2-(2-((2-(2,6-dioxopiperidin-3-yl)-1,3-dioxoisoindolin-5-yl)amino)ethoxy)ethyl)amino)-2-oxoethyl)piperazin-1-yl)-2-((tetrahydro-2H-pyran-4-yl)amino)benzamide]",> 80
6,"O=C(CN1CCN(c2ccc(C(=O)Nc3n[nH]c4ccc(Cc5cc(F)cc(F)c5)cc34)c(NC3CCOCC3)c2)CC1)NCCOCCOCCNc1ccc2c(c1)C(=O)N(C1CCC(=O)NC1=O)C2=O (stereo not drawn) [TR-162, N-(5-(3,5-Difluorobenzyl)-1H-indazol-3-yl)-4-(4-(2-((2-(2-(2-((2-(2,6-dioxopiperidin-3-yl)-1,3-dioxoisoindolin-5-yl)amino)ethoxy)ethoxy)ethyl)amino)-2-oxocthyl)piperazin-1-yl)-2-((tetrahydro-2H-pyran-4-yl)amino)benzamide]",> 80
7,"O=C(CN1CCN(c2ccc(C(=O)Nc3n[nH]c4ccc(Cc5cc(F)cc(F)c5)cc34)c(NC3CCOCC3)c2)CC1)NCCOCCOCCOCCNc1ccc2c(c1)C(=O)N(C1CCC(=O)NC1=O)C2=O (stereo not drawn) [TR-163, N—(S-(3,5-Difluorobenzyl)-1H-indazol-3-yl)-4-(4-(14-((2-(2,6-dioxopiperidin-3-yl)-1,3-dioxoisoindolin-5-yl)amino)-2-oxo-6,9,12-trioxa-3-azatetradecyl)piperazin-1-yl)-2˜ ((tetrahydro-2H-pyran-4-yl)amino)benzamide]",> 80
8,"O=C(CN1CCN(c2ccc(C(=O)Nc3n[nH]c4ccc(Cc5cc(F)cc(F)c5)cc34)c(NC3CCOCC3)c2)CC1)NCCCCCNc1ccc2c(c1)C(=O)N(C1CCC(=O)NC1=O)C2=O (stereo not drawn) [TR-164, N-(5-(3,5-Difluorobenzyl)-1H-indazol-3-yl)-4-(4-(2-((5-((2-(2,6-dioxopiperidin-3-yl)-1,3-dioxoisoindolin-5-yl)amino)pentyl)amino)-2-oxoethyl)piperazin-1-yl)-2-((tetrahydro-2H-pyran-4-yl)amino)benzamide]",> 80
9,"O=C(CN1CCN(c2ccc(C(=O)Nc3n[nH]c4ccc(Cc5cc(F)cc(F)c5)cc34)c(NC3CCOCC3)c2)CC1)NCCCNc1ccc2c(c1)C(=O)N(C1CCC(=O)NC1=O)C2=O (stereo not drawn) [TR-167, N-(5-(3,5-Difluorobenzyl)-1H-indazol-3-yl)-4-(4-(2-((3-((2-(2,6-dioxopiperidin-3-yl)-1,3-dioxoisoindolin-5-yl)amino)propyl)amino)-2-oxocthyl)piperazin-1-yl)-2-((tetrahydro-2H-pyran-4-yl)amino)benzamide]",> 80
10,"O=C1CCC(N2C(=O)c3ccc(NCCCC(=O)N4CCN(c5cccc(-c6cnc7ccc(N8CCC[C@@H]8c8cccc(F)c8)nn67)n5)CC4)cc3C2=O)C(=O)N1 (stereo partly drawn) [TR-168, 2-(2,6-Dioxopiperidin-3-yl)-5-((4-(4-(6-(6-((R)-2-(3-fluorophenyl)pyrrolidin-1-yl)imidazo[1,2-b]pyridazin-3-yl)pyridin-2-yl)piperazin-1-yl)-4-oxobutyl)amino) isoindoline-1,3-dione]",> 80
11,"O=C1CCC(N2C(=O)c3ccc(NCCCC(=O)N4CCN(c5ccc(C(=O)Nc6n[nH]c7ccc(Cc8cc(F)cc(F)c8)cc67)c(NC6CCOCC6)c5)CC4)cc3C2=O)C(=O)N1 (stereo not drawn) [TR-169, N-(5-(3,5-Difluorobenzyl)-1H-indazol-3-yl)-4-(4-(4-((2-(2,6-dioxopiperidin-3-yl)-1,3-dioxoisoindolin-S-yl)amino)butanoyl)piperazin-1-yl)-2-((tetrahydro-2/-pyran-4-yl)amino)benzamide]",> 80

# More lines, now with the values ahead:
row,percent degradation of TPM3-TRKA protein at 0.01 µM [%],SMILES
1,> 80,"O=C(CN1CCN(c2ccc(C(=O)Nc3n[nH]c4ccc(Cc5cc(F)cc(F)c5)cc34)c(NC3CCOCC3)c2)CC1)NCCCNc1cccc2c1C(=O)N(C1CCC(=O)NC1=O)C2=O (stereo not drawn) [TR-152, N-(5-(3,5-Difluorobenzyl)-1H-indazol-3-yl)-4-(4-(2-((3-((2-(2,6-dioxopiperidin-3,3-yl)-1,3-dioxoisoindolin-4-yl)amino)propyl)amino)-2-oxocthyl)piperazin-1-yl)-2-((tetrahydro-2H-pyran-4-yl)amino)benzamide]"
2,> 80,"O=C(CN1CCN(c2ccc(C(=O)Nc3n[nH]c4ccc(Cc5cc(F)cc(F)c5)cc34)c(NC3CCOCC3)c2)CC1)NCCCCCCCNc1ccc2c(c1)C(=O)N(C1CCC(=O)NC1=O)C2=O (stereo not drawn) [TR-157, N-(5-(3,5-Difluorobenzyl)-1H-indazol-3-yl)-4-(4-(2-((7-((2-(2,6-dioxopiperidin-3-yl)-1,3-dioxoisoindolin-5-yl)amino)heptyl)amino)-2-oxoethyl)piperazin-1-yl)-2-((tetrahydro-2H-pyran-4-yl)amino)benzamide]"
3,> 80,"O=C(CN1CCN(c2ccc(C(=O)Nc3n[nH]c4ccc(Cc5cc(F)cc(F)c5)cc34)c(NC3CCOCC3)c2)CC1)NCCOCCOCCOCCOCCNc1ccc2c(c1)C(=O)N(C1CCC(=O)NC1=O)C2=O (stereo not drawn) [TR-160, N-(5-(3,5-Difluorobenzyl)-1H-indazol-3-yl)-4-(4-(17-((2-(2,6-dioxopiperidin-3-yl)-1,3-dioxoisoindolin-S-yl)amino)-2-oxo-6,9,12,15-tetraoxa-3-azaheptadecyl)piperazin-1-yl)-2-((tetrahydro-2H-pyran-4-yl)amino)benzamide]"
4,> 80,"O=C(CN1CCN(c2ccc(C(=O)Nc3n[nH]c4ccc(Cc5cc(F)cc(F)c5)cc34)c(NC3CCOCC3)c2)CC1)NCCNc1ccc2c(c1)C(=O)N(C1CCC(=O)NC1=O)C2=O (stereo not drawn) [TR-165, N-(5-(3,5-Difluorobenzyl)-1H-indazol-3-yl)-4-(4-(2-((2-((2-(2,6-dioxopiperidin-3-yl)-1,3-dioxoisoindolin-5-yl)amino)ethyl)amino)-2-oxoethyl)piperazin-1-yl)-2-((tetrahydro-2H-pyran-4-yl)amino)benzamide]"
5,> 80,"O=C(CN1CCN(c2ccc(C(=O)Nc3n[nH]c4ccc(Cc5cc(F)cc(F)c5)cc34)c(NC3CCOCC3)c2)CC1)NCCOCCOCCOCCOCCOCCNc1ccc2c(c1)C(=O)N(C1CCC(=O)NC1=O)C2=O (stereo not drawn) [TR-166, N-(5-(3,5-Difluorobenzyl)-1H-indazol-3-yl)-4-(4-(20-((2-(2,6-dioxopiperidin-3-yl)-1,3-dioxoisoindolin-5-yl)amino)-2-oxo-6,9,12,15,18-pentaoxa-3-azaicosyl)piperazin-1-yl)-2-((tetrahydro-28-pyran-4-yl)amino)benzamide]"
6,> 80,"O=C1CCC(N2C(=O)c3ccc(NCCCN4CCN(c5cccc(-c6cnc7ccc(N8CCC[C@@H]8c8cccc(F)c8)nn67)n5)CC4)cc3C2=O)C(=O)N1 (stereo partly drawn) [TR-171, 2˜ (2,6-Dioxopiperidin-3-yl)-5-((3-(4-(6-(6-((R)-2-(3-fluorophenyl)pyrrolidin-1-yl)imidazo[1,2-b]pyridazin-3-yl)pyridin-2-yl)piperazin-1-yl)propyl)amino) isoindoline-1,3-dione]"

# Same assay, conditions: KM12, 16 h, read-out: Degradation (at 10 nM)
row,SMILES,percent degradation of TPM3-TRKA protein at 0.01 µM [%]
1,"O=C1CCC(N2C(=O)c3ccc(CCCN4CCN(c5cccc(-c6cnc7ccc(N8CCC[C@@H]8c8cccc(F)c8)nn67)n5)CC4)cc3C2=O)C(=O)N1 (stereo partly drawn) [TR-172, 2-(2,6-dioxopiperidin-3-yl)-5-(3-(4-(6-(6-((R)-2˜ (3-fluorophenyl)pyrrolidin-1-yl)imidazo[1,2-b]pyridazin-3-yl)pyridin-2-yl)piperazin-1-yl)propyl)isoindoline-1,3-dione]",> 80
